Like-named read-outs stand apart in the source and are kept apart here.
Tests used:
PKCα = PKCα (Homo sapiens, UniProt P17252); test: PKCα kinase Caliper assay; type: biochemical; conditions: read-out: PKC IC50
Description: PKCα and cABLT315 Kinase Caliper Assays
Assays were performed in 384 well microtiter plates. Each assay plate contained 8-point serial dilutions for test compounds, as well as two 16-point serial dilutions of staurosporine as reference compound, plus 16 high- and 16 low controls. Liquid handling and incubation steps were done on a Thermo CatX workstation equipped with a Innovadyne Nanodrop Express. Between pipetting steps, tips were cleaned in wash cycles using wash buffer. Plates with terminated kinase reactions were transferred to the Caliper LC3000 workstations for reading. Phosphorylated and unphosphorylated peptides were separated using the Caliper microfluidic mobilitishift technology and Kinase activities were calculated from the amounts of formed phospho-peptide.
1. 0.05 μA Compound (start with 1.8 mM in 90% DMSO/10% H2O)
2. +4.5 μl 2× peptide/ATP solution
3. +4.5 μl 2× enzyme solution
4. Incubate for 60 min at 30° C.
4. +16 μl stop/run buffer
Independent of the kinase, all reactions were done performed in 50 mM HEPES, pH 7.5, 1 mM DTT, 0.02% Tween20, 0.02% BSA, and 0.6% DMSO.

GSK3β = GSK3β (Homo sapiens, UniProt P49841); test: GSK3β ATP depletion assay; type: biochemical; conditions: read-out: GSK3b IC50
How it was run: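 Human GSK3β (5 nM) preincubated 15 min with 10 μM biotinylated phospho-CREB peptide in pH 7.5 Tris buffer (15 mM MgCl2, 1 mM DTT, 0.1% BSA, 2.5% DMSO). Reaction started with 2 μM ATP and run to about 50% ATP depletion. Remaining ATP measured by KinaseGlo luminescence.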

[1] = system: KMS11 (human myeloma cell line); test: Cell proliferation assay (CellTiter-Glo), KMS11; type: cell-based; conditions: Homo sapiens, KMS-11
How it was run: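 KMS11 cells in IMDM with 10% FBS and sodium pyruvate, seeded at 2000 cells/well on assay day. Compound added at 2× to equal volume of cells, incubated 3 days at 37° C. Viability read by CellTiter-Glo luminescence; EC50 derived.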

PDGFRaV561D kinase = PDGFRaV561D kinase (Homo sapiens, UniProt P16234, V561D); test: PDGFRaV561D kinase inhibition assay (LanthaScreen TR-FRET); type: biochemical; conditions: read-out: PDGFRa IC50
Description: PDGFRaV561D Kinase Inhibition Assay
LanthaScreen™ is the detection of Time-Resolved Fluorescence Resonance Energy Transfer (TR-FRET) using lanthanide chelates to measure interactions between various binding partners. The application of TR-FRET to assay kinase activity was first described by Mathis (1995). A TR-FRET assay was used to measure PDGFRaV561D kinase inhibitory activity. The assay panel was run on a Biomek FX liquid handling workstations. To the assay plates containing […] compound or control solutions, 4.5 μL of buffer A (50 mM TRIS-HCl pH 7.4, 2 mM DTT, 0.02% Tween 20, 0.02 mM Na3VO4, H2O nanpure) including a generic concentration of ATP (2 μM f.c.) was added per well, followed by […] of buffer B (4 uM ATP in Buffer A) including a generic concentration of polyEAY (50 nM f.c.), PDGFRaV561D kinase, and divalent cations. Final concentration of kinase and cations were: [PDGFRaV561D kinase]=4.4 nM, [Mn]=10 mM. After 1 hour of incubation the kinase reactions were stopped by the addition of 4.5 μL of stop solution D (50 mM EDTA, 20 mM TRIS-HCl pH 7.4, 0.04% NP-40) immediately followed by 4.5 μL of buffer A (50 mM TRIS-HCl pH 7.4, 2 mM DTT, 0.02% Tween 20, 0.02 mM Na3VO4, H2O nanpure) including the Tb-labeled P-20 antibody to give a total detection volume of […]. After an incubation time of 45 min in the dark, the plates were transferred into the Pherastar fluorescence reader for counting. The effect of compound on the enzymatic activity was obtained from the linear progress curves and determined from one reading (end point measurement).

[2] = KMS11 cells, cell proliferation, read-out: KMS11-Luc EC50

Sequence of GSK3β (P49841 whole entry, species assumed): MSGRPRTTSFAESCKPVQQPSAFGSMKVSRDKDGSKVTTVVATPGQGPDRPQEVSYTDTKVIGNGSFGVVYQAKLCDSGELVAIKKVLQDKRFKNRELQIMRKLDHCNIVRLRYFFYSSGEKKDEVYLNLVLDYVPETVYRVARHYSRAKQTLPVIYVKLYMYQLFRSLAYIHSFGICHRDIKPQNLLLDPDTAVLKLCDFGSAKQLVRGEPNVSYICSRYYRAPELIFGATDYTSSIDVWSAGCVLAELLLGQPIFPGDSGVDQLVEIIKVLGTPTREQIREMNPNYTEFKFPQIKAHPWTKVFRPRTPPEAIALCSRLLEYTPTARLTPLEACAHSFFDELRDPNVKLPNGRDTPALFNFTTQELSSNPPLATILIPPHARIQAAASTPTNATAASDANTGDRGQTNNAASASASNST
Sequence of PDGFRaV561D kinase (P16234 24-1089 V561D): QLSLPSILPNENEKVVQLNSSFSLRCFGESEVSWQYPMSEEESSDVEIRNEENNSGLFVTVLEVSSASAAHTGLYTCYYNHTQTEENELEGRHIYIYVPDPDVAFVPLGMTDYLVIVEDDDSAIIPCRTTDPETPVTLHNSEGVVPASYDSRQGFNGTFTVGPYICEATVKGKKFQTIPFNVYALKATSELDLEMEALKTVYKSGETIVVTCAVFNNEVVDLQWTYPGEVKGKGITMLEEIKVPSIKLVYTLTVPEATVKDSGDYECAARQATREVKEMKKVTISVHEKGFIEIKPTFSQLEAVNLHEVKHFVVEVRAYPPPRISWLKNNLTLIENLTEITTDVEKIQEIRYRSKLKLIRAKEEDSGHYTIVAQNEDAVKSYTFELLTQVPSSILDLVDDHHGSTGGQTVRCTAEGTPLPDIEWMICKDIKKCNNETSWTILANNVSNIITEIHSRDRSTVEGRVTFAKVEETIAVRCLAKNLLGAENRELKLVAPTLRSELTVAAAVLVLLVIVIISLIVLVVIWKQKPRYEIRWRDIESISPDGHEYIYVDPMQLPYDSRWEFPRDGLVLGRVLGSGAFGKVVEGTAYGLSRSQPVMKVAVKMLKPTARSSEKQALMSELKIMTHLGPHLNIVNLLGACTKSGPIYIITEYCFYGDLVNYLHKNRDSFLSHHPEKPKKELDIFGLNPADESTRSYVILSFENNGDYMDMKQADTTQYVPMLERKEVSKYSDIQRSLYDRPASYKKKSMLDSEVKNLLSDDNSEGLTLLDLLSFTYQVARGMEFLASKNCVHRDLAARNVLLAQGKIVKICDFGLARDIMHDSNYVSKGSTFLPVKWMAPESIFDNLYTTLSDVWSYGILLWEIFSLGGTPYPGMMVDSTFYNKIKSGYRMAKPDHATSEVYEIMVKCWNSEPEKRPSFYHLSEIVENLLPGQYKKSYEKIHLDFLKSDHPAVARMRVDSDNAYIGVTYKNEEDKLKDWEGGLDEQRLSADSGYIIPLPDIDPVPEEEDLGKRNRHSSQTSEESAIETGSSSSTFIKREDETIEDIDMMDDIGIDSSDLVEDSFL

Row | IC50 (PKCα; PKCα Caliper assay) | IC50 (GSK3β; ATP depletion assay) | EC50 [1, 2] | IC50 (PDGFRaV561D kinase) | IC50 (PKCα) | IC50 (GSK3β) | EC50 ([1]; KMS11-Luc cells) | Compound
1 | 650 nM | 670 nM | 9390 nM | 4100 nM | – | – | – | Nc1ncc(-c2ccccc2)nc1C(=O)Nc1cnccc1[C@@H]1C[C@H](N)[C@]2(O)CCC[C@@H]2O1 [Example 185, 3-amino-N-(4-((2S,4S,4aR,7aS)-4-amino-4a-hydroxyoctahydrocyclopenta[b]pyran-2-yl)pyridin-3-yl)-6-phenylpyrazine-2-carboxamide]
2 | 140 nM | 100 nM | 540 nM | 3300 nM | – | – | – | Nc1ncc(-c2ccccc2)nc1C(=O)Nc1cnccc1[C@@H]1C[C@H](N)[C@@H](O)[C@H](C2CC2)O1 [Example 349, 3-amino-N-(4-((2S,4S,5R,6S)-4-amino-6-cyclopropyl-5-hydroxytetrahydro-2H-pyran-2-yl)pyridin-3-yl)-6-phenylpyrazine-2-carboxamide]
3 | – | – | – | > 10000 nM | 760 nM | 40 nM | 6910 nM | Nc1ncc(-c2ccccc2)nc1C(=O)Nc1cnccc1[C@@H]1C[C@H](O)[C@]2(O)CCC[C@@H]2O1 [Example 186, 3-amino-N-(4-((2S,4S,4aR,7aS)-4,4a-dihydroxyoctahydrocyclopenta[b]pyran-2-yl)pyridin-3-yl)-6-phenylpyrazine-2-carboxamide]
4 | 550 nM | 330 nM | 100 nM | 940 nM | – | – | – | Nc1ncc(-c2ccccc2)nc1C(=O)Nc1cnccc1[C@@H]1C[C@H](N)[C@@H]2CCC[C@@H]2O1 [Example 233, 3-amino-N-(4-((2S,4S,4aS,7aS)-4-aminooctahydrocyclopenta[b]pyran-2-yl)pyridin-3-yl)-6-phenylpyrazine-2-carboxamide]
5 | 1000 nM | 570 nM | 2430 nM | 9000 nM | – | – | – | C[C@@]1(O)[C@@H](N)C[C@@H](c2ccncc2NC(=O)c2nc(-c3ccccc3)cnc2N)O[C@H]1C1CC1 [Example 347, 3-amino-N-(4-((2S,4S,5R,6S)-4-amino-6-cyclopropyl-5-hydroxy-5-methyltetrahydro-2H-pyran-2-yl)pyridin-3-yl)-6-phenylpyrazine-2-carboxamide]
6 | – | – | – | > 10000 nM | > 10000 nM | 645 nM | 8100 nM | O=C1CC[C@H]2O[C@@H](c3ccncc3NC(=O)c3ccc(F)c(-c4c(F)cccc4F)n3)C[C@@H](O)[C@@H]2N1 [Example 196, 6-(2,6-difluorophenyl)-5-fluoro-N-(4-((2R,4R,4aS,8aR)-4-hydroxy-6-oxooctahydro-2H-pyrano[3,2-b]pyridin-2-yl)pyridin-3-yl)picolinamide]
7 | 41 nM | 8 nM | 70 nM | 23 nM | – | – | – | Nc1ncc(-c2ccccc2)nc1C(=O)Nc1cnccc1[C@H]1C[C@@H](N)[C@@]2(O)CCCC[C@H]2O1 [Example 197, 3-amino-N-(4-((2R,4R,4aS,8aR)-4-amino-4a-hydroxyoctahydro-2H-chromen-2-yl)pyridin-3-yl)-6-phenylpyrazine-2-carboxamide]
8 | 23 nM | 12 nM | 150 nM | 12 nM | – | – | – | CC[C@H]1O[C@@H](c2ccncc2NC(=O)c2nc(-c3ccccc3)cnc2N)C[C@@H](N)[C@@H]1O [Example 343, 3-amino-N-(4-((2R,4R,5S,6R)-4-amino-6-ethyl-5-hydroxytetrahydro-2H-pyran-2-yl)pyridin-3-yl)-6-phenylpyrazine-2-carboxamide]
9 | > 10000 nM | 363 nM | 650 nM | 390 nM | – | – | – | N[C@@H]1C[C@H](c2ccncc2NC(=O)c2ccc(F)c(-c3c(F)cccc3F)n2)O[C@@H]2CCC[C@H]12 [Example 224, N-(4-((2R,4R,4aR,7aR)-4-aminooctahydrocyclopenta[b]pyran-2-yl)pyridin-3-yl)-6-(2,6-difluorophenyl)-5-fluoropicolinamide]
10 | 290 nM | 270 nM | 380 nM | 7300 nM | – | – | – | CC(C)[C@@H]1O[C@H](c2ccncc2NC(=O)c2nc(-c3ccccc3)cnc2N)C[C@H](N)[C@H]1O [Example 240, 3-amino-N-(4-((2S,4S,5R,6S)-4-amino-5-hydroxy-6-isopropyltetrahydro-2H-pyran-2-yl)pyridin-3-yl)-6-phenylpyrazine-2-carboxamide]
11 | 660 nM | 370 nM | 3170 nM | 7400 nM | – | – | – | CC[C@@H]1O[C@H](c2ccncc2NC(=O)c2nc(-c3ccccc3)cnc2N)C[C@H](N)[C@@]1(C)O [Example 345, 3-amino-N-(4-((2S,4S,5R,6S)-4-amino-6-ethyl-5-hydroxy-5-methyltetrahydro-2H-pyran-2-yl)pyridin-3-yl)-6-phenylpyrazine-2-carboxamide]
12 | – | – | – | > 10000 nM | > 10000 nM | 102 nM | 1940 nM | CC[C@]1(O)[C@H](O)C[C@H](c2ccncc2NC(=O)c2nc(-c3c(F)cccc3F)ncc2N)O[C@@H]1C [Example 143, 5-amino-2-(2,6-difluorophenyl)-N-(4-((2R,4R,5S,6R)-5-ethyl-4,5-dihydroxy-6-methyltetrahydro-2H-pyran-2-yl)pyridin-3-yl)pyrimidine-4-carboxamide]
13 | – | – | – | > 10000 nM | > 10000 nM | 4250 nM | > 10000 nM | O=C(Nc1cnccc1[C@H]1C[C@@H](O)[C@@]2(O)CCCC[C@H]2O1)c1c[nH]cc(-c2ccccc2)c1=O [Example 178, N-(4-((2R,4R,4aS,8aR)-4,4a-dihydroxyoctahydro-2H-chromen-2-yl)pyridin-3-yl)-4-oxo-5-phenyl-1,4-dihydropyridine-3-carboxamide]
14 | 840 nM | 170 nM | 210 nM | 9100 nM | – | – | – | CC(C)(C)[C@@H]1O[C@H](c2ccncc2NC(=O)c2nc(-c3ccccc3)cnc2N)C[C@H](N)[C@H]1O [Example 355, 3-amino-N-(4-((2S,4S,5R,6S)-4-amino-6-tert-butyl-5-hydroxytetrahydro-2H-pyran-2-yl)pyridin-3-yl)-6-phenylpyrazine-2-carboxamide]
15 | 75 nM | 8.6 nM | 180 nM | 53 nM | – | – | – | CC(C)[C@H]1O[C@@H](c2ccncc2NC(=O)c2nc(-c3ccccc3)cnc2N)C[C@@H](N)[C@@H]1O [Example 356, 3-amino-N-(4-((2R,4R,5S,6R)-4-amino-5-hydroxy-6-isopropyltetrahydro-2H-pyran-2-yl)pyridin-3-yl)-6-phenylpyrazine-2-carboxamide]
16 | 50 nM | 3.3 nM | 950 nM | 25 nM | – | – | – | CC[C@]1(O)[C@H](N)C[C@H](c2ccncc2NC(=O)c2nc(-c3ccccc3)cnc2N)O[C@@H]1C [Example 187, 3-amino-N-(4-((2R,4R,5S,6R)-4-amino-5-ethyl-5-hydroxy-6-methyltetrahydro-2H-pyran-2-yl)pyridin-3-yl)-6-phenylpyrazine-2-carboxamide]
17 | 110 nM | 29 nM | 870 nM | 110 nM | – | – | – | C[C@]1(O)[C@H](N)C[C@H](c2ccncc2NC(=O)c2nc(-c3ccccc3)cnc2N)O[C@@H]1C1CC1 [Example 344, 3-amino-N-(4-((2R,4R,5S,6R)-4-amino-6-cyclopropyl-5-hydroxy-5-methyltetrahydro-2H-pyran-2-yl)pyridin-3-yl)-6-phenylpyrazine-2-carboxamide]
